Measurements from PubChem BioAssay (NCI).
Values joined by “and” are separate entries in the source; they are usually repeats but may differ in a detail not shown here. Equal entries are not always repeated.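 Each compound was tested at five concentrations against cells in 96-well plates for 48 hours. GI50 = concentration required for 50% inhibition of growth. Definition used: TGI = concentration required for complete inhibition of growth.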

Tests used:
Assay in all cases: DTP human tumour cell line panel, 48 h
RXF 393 renal = tested on: RXF 393 renal
DU-145 prostate = tested on: DU-145 prostate
SF-539 CNS = tested on: SF-539 CNS
SF-295 CNS = tested on: SF-295 CNS
NCI-H226 lung = tested on: NCI-H226 lung
OVCAR-8 ovarian = tested on: OVCAR-8 ovarian
NCI/ADR-RES ovarian = tested on: NCI/ADR-RES ovarian
HL-60(TB) leukemia = tested on: HL-60(TB) leukemia
SK-MEL-5 melanoma = tested on: SK-MEL-5 melanoma
786-0 renal = tested on: 786-0 renal
MALME-3M melanoma = tested on: MALME-3M melanoma
MDA-MB-435 = tested on: MDA-MB-435

| Compound | TGI (RXF 393 renal) [µM] | TGI (DU-145 prostate) | TGI (SF-539 CNS) | TGI (SF-295 CNS) | TGI (NCI-H226 lung) | TGI (OVCAR-8 ovarian) | TGI (NCI/ADR-RES ovarian) [µM] | TGI (HL-60(TB) leukemia) [µM] | TGI (SK-MEL-5 melanoma) | TGI (786-0 renal) | TGI (MALME-3M melanoma) [µM] | TGI (MDA-MB-435) | GI50 (RXF 393 renal) [µM] | GI50 (DU-145 prostate) [µM] | GI50 (MDA-MB-435) [µM] | GI50 (SF-539 CNS) [µM] | GI50 (SF-295 CNS) [µM] | GI50 (HL-60(TB) leukemia) [µM] | GI50 (SK-MEL-5 melanoma) [µM] |
| --- | --- | --- | --- | --- | --- | --- | --- | --- | --- | --- | --- | --- | --- | --- | --- | --- | --- | --- | --- |
| NN/C(=N\S(=O)(=O)c1cc2ccccc2s1)Nc1ccc(Cl)cc1 | 29.6 | 32.3 µM | 29.8 µM | 43.2 µM | 36.5 µM | 47.9 µM | 46.4 | 48 | 31.8 µM | 35.4 µM | – | – | – | – | – | – | – | – | – |
| CCOC(=O)c1cc(C(O)P2(=O)N(CC(C)(C)C)[C@@H]3CCCC[C@H]3N2CC(C)(C)C)cn1C(=O)OC(C)(C)C (some centres not stated) | 26.6 | 36.2 µM | – | 32 µM | 39.4 µM | 47.1 µM | 44.6 | 48.6 | 31.3 µM | 31 µM | 33.6 | 27 µM | – | – | – | – | – | – | – |
| CNc1ccc(C(=O)CC(O)CCC(C)C2OC(=O)CC(O)CC(=O)CC(O)CC(O)CC(O)CC(O)CC3(O)CC(O)C(C(=O)OC)C(CC(O[C@@H]4O[C@H](C)[C@@H](O)[C@H](N)[C@@H]4O)/C=C/C=C/C=C/C=C/C=C/C=C/C=C/C2C)O3)cc1 (some centres not stated) | 4.46 | 3.55 µM | 47.9 µM | 9.67 µM | – | – | – | 7.04 | 3.17 µM | – | – | 6.19 µM | 1.72 | 1.85 | 2.02 | 13.6 | 2.63 | 2.9 | 1.42 |
| O=C1C=CC[C@H]2O[C@@H](COC(=O)Cc3ccccc3)C[C@H]2O1 | – | > 100 µM | > 100 µM | > 100 µM | > 100 µM | 77.9 µM | > 100 | 65.2 | > 100 µM | – | – | > 100 µM | – | – | – | – | – | – | – |
| CCOC(=O)c1nc2ccc(C(F)(F)F)cc2nc1NCc1cc(OC)c(OC)c(OC)c1 | > 100 | > 100 µM | > 100 µM | > 100 µM | > 100 µM | > 100 µM | > 100 | 83.4 | > 100 µM | > 100 µM | – | > 100 µM | – | – | – | – | – | – | – |
| CC(C)=CCC/C(C)=C/C=C/C(C)=C/C=C/C(C)=C/C=C/C=C(C)/C=C/C=C(C)/C=C/[C@H]1C(C(C)(C)O)CC[C@]1(C)O (some centres not stated) | 45.4 | 49.9 µM | > 100 µM | > 100 µM | > 100 µM | 52.2 µM | > 100 | 48.9 | 33.5 µM | 46.8 µM | – | 61.2 µM | – | – | – | – | – | – | – |
| O=C1CCC(c2ccc(Cl)cc2)=NN1c1nsc2ccccc12 | 59.6 | – | > 100 µM | – | – | > 100 µM | – | 46.3 | – | – | – | – | – | – | – | – | – | – | – |
| Cc1ccc(SCC(CF)OC(C)n2cnc3c(=O)[nH]c(N)nc32)cc1 (configuration not stated) | – | > 100 µM | > 100 µM | > 100 µM | > 100 µM | > 100 µM | > 100 | > 100 | 47.6 µM | > 100 µM | > 100 | > 100 µM | – | – | – | – | – | – | – |
| Cc1cn(C2CC(N(O)Cc3ccccc3)C(CO[Si](C)(C)C(C)(C)C)O2)c(=O)[nH]c1=O (configuration not stated) | 26.8 | > 100 µM and 32 µM | 33.2 µM and 29.5 µM | 39.6 µM and 31 µM | 35.6 µM and 36.9 µM | 84.1 µM and 32 µM | – | > 100 | 33.1 µM and 30.2 µM | 30.1 µM and 31.1 µM | 31.8 | 33.1 µM and 31.9 µM | – | – | – | – | – | – | – |
| CC1NC(=O)CC(c2ccccc2)N(N=O)C1c1ccccc1 (configuration not stated) | 53.5 | – | 48.4 µM | > 100 µM | > 100 µM | > 82.7 µM | > 62.9 | > 67.2 | > 100 µM | – | > 100 | – | – | – | – | – | – | – | – |
| O=Cc1ccc(OCc2cccc(COc3ccc(/C=N\Nc4ccc([N+](=O)[O-])cc4[N+](=O)[O-])cc3)n2)cc1 | > 100 | > 100 µM | – | > 100 µM | > 100 µM | > 100 µM | > 100 | > 100 | > 100 µM | > 100 µM | > 100 | > 100 µM | – | – | – | – | – | – | – |
| CC12C(=O)CC(CC1=O)C2(C)C | – | > 100 µM | – | > 100 µM | > 100 µM | > 100 µM | > 100 | > 100 | > 100 µM | > 100 µM | > 100 | – | – | – | – | – | – | – | – |
| CCOC(=O)/C=C(/C(=O)OCC)n1ccc(=O)n(Cc2cn(COCCOC(C)=O)nn2)c1=O | 56.2 | > 100 µM | 34.5 µM | > 100 µM | > 100 µM | 30 µM | 48.1 | – | 75.4 µM | > 100 µM | – | 36 µM | – | – | – | – | – | – | – |
| CSc1ncnc2c1ncn2C1CC(Oc2ccc(C)cc2)C(COc2ccc(C)cc2)O1 (configuration not stated) | – | > 100 µM | > 100 µM | > 100 µM | > 100 µM | > 100 µM | > 100 | > 100 | > 100 µM | > 100 µM | > 100 | > 100 µM | – | – | – | – | – | – | – |
| O=C(O)c1ccc([N+](=O)[O-])c2cc3cnccc3nc12 | 74.1 | > 100 µM | – | > 100 µM | 61.6 µM | 48.9 µM | 80.9 | > 100 | 38.4 µM | – | 42.2 | > 100 µM | – | – | – | – | – | – | – |
